Source: ChEMBL document CHEMBL1201862, “PubChem BioAssay data set” (2004)
Activity calls are given as the source filed them.

Tests used:
[1] = molecular target: T1, Heat shock factor protein 1 (Mus musculus, UniProt P38532); experiment: HSF1 potentiators in luciferase reporter cells, confirmation, cell-based, NIH3T3, luminescence, dose retest (AID 435004); type: functional;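 note: stress induced by proteasome inhibitor MG132 added 30 min after compound; luciferase reporter driven by HSF1 response element in NIH3T3 cells; actives raise luminescence as potentiators of the MG132 stress response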
T1 sequence (P38532 whole entry): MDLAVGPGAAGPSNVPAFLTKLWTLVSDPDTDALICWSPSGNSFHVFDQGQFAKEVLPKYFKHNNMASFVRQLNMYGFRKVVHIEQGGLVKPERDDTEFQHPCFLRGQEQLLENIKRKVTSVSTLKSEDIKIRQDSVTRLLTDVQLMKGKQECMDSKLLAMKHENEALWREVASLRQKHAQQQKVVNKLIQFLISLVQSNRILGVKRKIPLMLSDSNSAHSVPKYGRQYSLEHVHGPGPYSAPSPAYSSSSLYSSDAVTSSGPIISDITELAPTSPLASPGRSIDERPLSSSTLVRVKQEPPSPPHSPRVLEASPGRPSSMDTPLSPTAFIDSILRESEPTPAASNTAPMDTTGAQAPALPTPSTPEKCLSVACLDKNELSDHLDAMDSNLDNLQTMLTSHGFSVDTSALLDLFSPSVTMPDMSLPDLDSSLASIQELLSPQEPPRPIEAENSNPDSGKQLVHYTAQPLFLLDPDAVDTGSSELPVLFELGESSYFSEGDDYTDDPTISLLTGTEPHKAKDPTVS

[2] = molecular target: 5-hydroxytryptamine receptor 2A (Mus musculus, UniProt P35363); type: functional, cell-based;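 note: CHO-K1 cells with tagged receptor and beta-arrestin; agonist potency measured as compound-induced activation of the receptor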
Sequence of 5-hydroxytryptamine receptor 2A (P35363 whole entry): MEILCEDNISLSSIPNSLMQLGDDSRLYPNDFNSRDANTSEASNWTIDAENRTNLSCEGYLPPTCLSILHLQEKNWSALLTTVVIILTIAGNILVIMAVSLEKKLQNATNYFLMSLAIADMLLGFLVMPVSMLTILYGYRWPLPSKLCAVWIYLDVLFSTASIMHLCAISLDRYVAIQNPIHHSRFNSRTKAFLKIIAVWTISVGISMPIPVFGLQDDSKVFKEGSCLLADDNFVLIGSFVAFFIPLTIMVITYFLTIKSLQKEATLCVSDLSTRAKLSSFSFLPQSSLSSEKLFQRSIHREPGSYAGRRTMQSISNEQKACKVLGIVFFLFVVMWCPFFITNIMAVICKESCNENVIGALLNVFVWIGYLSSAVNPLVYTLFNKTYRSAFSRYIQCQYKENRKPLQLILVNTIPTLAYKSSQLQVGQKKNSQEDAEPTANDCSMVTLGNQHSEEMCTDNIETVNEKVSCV

Mu-type opioid receptor = Mu-type opioid receptor (Homo sapiens, UniProt P35372); type: functional, cell-based;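 note: U2OS cells with beta-arrestin recruitment to OPRM1 by beta-gal complementation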
Sequence of Mu-type opioid receptor (P35372 whole entry, the tested form may be a part): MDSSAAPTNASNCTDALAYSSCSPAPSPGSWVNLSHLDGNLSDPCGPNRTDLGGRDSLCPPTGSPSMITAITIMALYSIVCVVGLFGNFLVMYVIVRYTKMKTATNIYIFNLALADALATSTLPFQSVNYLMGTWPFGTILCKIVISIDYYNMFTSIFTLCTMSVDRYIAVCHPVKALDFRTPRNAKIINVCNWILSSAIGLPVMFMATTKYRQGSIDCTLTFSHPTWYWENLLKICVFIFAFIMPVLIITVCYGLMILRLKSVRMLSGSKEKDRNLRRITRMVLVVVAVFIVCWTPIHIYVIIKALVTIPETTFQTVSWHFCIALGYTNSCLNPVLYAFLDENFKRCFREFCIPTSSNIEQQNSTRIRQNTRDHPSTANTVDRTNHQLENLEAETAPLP

[3] = ZM109 Env clade C HIV-1 fusion inhibitors, dose response, HeLa effector, CEM target cells, luciferase, cherry-pick (AID 652058); type: functional, cell-based
[4] = inhibitors of clade B AD8 Env fusion, dose response, cell-based, cherry-pick (AID 652062); type: functional;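 note: luciferase signal from cell-cell fusion driven by HIV-1 clade B AD8 Env; potency is for inhibitors of fusion seen as a drop in luminescence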
[5] = off-target signal loss in HeLa-CEM21 co-culture – HeLa F-luc CTL cells, cherry-picked, counter-screen for HIV-1 Env fusion inhibitor project, dose response (AID 652040); type: functional, cell-based;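 note: potency for signal decrease marking cytotoxic or nonspecific inhibition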
[6] = CEM21 lymphoblast cell cytotoxicity, dose response, cytotoxicity control for viral fusion inhibitor project, CellTiter-Glo luminescence, cherry-picked (AID 652042); type: functional, cell-based;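 note: potency for signal decrease meaning cytotoxicity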
[7] = inhibitors of HIV Env-driven cell fusion, dose response, cherry-pick (AID 652057); type: functional, cell-based
[8] = molecular target: T2, Long-chain-fatty-acid--AMP ligase FadD28 (Mycobacterium tuberculosis, UniProt P9WQ59); experiment: Fluorescence polarization aasay to screen for inhibitors that compete for the binding of FadD28 to a bisubstrate Measured in Biochemical System Using Plate Reader - 2147-01_Inhibitor_Dose_CherryPick_Activity.; type: functional, Mycobacterium tuberculosis H37Rv
T2 sequence (P9WQ59 whole entry): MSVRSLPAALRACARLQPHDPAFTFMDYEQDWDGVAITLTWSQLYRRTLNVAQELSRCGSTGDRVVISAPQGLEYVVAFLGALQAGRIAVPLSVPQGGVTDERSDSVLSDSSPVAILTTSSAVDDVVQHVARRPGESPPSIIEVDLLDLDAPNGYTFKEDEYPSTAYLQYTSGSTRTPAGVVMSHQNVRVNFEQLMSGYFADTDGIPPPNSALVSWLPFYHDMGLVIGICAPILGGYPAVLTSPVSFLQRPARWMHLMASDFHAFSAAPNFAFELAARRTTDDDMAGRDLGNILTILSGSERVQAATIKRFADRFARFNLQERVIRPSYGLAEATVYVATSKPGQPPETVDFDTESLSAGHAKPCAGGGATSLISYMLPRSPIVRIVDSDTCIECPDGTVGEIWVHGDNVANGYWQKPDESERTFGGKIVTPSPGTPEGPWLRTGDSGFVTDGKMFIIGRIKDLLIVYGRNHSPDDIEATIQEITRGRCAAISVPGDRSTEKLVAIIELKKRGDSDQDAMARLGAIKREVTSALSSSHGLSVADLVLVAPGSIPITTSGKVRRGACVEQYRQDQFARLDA

[9] = molecular target: T3, Rac GTPase-activating protein 1 (Homo sapiens, UniProt Q9H0H5); experiment: MgcRacGAP GTPase-activating activity inhibitors, confirmation, biochemical, ADP Hunter fluorescence, primary and confirmatory (AID 624330); type: functional
T3 sequence (Q9H0H5 whole entry): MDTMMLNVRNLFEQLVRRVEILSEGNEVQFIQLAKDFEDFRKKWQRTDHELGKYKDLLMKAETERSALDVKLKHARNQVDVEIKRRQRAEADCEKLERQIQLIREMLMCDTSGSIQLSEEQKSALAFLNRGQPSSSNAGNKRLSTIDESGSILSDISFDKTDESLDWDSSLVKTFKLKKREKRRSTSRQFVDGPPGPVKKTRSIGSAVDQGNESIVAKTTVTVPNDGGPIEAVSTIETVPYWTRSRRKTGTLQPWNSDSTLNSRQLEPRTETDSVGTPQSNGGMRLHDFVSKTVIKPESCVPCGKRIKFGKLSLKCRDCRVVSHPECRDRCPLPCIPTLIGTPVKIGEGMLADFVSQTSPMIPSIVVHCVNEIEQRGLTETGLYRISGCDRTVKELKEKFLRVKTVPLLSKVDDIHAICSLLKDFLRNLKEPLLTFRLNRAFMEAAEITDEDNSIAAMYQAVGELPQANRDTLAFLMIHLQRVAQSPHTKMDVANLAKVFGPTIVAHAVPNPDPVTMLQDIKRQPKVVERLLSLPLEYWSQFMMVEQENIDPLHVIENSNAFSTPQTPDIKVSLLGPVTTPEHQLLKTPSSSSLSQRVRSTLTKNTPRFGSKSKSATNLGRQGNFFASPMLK

Large T antigen = Large T antigen (Simian virus 40, UniProt P03070); type: functional, Betapolyomavirus macacae;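 note: Confirmatory-stage PubChem screen for compounds that inhibit SV40 T antigen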
Sequence of Large T antigen (P03070 whole entry): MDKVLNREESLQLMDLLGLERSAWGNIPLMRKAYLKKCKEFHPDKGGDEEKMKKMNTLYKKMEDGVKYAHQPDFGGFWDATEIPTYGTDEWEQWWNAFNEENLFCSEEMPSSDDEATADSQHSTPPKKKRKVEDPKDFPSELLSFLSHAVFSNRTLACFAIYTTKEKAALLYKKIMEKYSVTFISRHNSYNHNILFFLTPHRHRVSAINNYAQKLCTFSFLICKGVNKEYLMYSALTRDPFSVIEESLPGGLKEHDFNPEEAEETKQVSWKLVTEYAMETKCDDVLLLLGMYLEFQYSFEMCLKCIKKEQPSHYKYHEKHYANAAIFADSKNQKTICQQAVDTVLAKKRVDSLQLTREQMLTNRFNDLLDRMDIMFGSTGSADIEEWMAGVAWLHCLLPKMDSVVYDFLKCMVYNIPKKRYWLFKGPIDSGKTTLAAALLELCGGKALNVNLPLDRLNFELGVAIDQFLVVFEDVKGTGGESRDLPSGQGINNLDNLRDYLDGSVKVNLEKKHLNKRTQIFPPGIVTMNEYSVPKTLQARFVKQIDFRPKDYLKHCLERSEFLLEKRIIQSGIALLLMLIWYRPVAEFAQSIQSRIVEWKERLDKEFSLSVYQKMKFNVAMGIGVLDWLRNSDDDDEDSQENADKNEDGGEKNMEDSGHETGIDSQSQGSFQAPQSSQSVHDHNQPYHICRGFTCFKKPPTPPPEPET

[10] = Luminescence Cell-Based Dose Confirmation HTS to Identify Inhibitors of Platelet Dense Granule Release. [Related pubchem assays: 1663 (Primary HTS), 1678 (Summary of Project)]; type: functional
[11] = molecular target: T4, Nuclear receptor subfamily 0 group B member 1 (Homo sapiens, UniProt P51843); type: functional, cell-based;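 note: HEK293T cells transfected with SF-1 and DAX-1 plus StAR promoter luciferase reporter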
T4 sequence (P51843 whole entry): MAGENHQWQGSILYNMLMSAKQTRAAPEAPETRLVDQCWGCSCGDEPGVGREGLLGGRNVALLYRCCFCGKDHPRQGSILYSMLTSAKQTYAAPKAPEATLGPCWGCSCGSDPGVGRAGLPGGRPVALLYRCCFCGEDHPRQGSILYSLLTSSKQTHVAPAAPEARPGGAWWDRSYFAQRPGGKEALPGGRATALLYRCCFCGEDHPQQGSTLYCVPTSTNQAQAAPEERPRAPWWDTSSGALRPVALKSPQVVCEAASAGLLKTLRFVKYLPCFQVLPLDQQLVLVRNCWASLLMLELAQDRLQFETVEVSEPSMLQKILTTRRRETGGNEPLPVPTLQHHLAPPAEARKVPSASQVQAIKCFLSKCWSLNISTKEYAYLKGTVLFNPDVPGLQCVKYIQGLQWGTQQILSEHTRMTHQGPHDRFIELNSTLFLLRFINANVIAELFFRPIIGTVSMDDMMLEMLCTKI

cells [12] = type: functional, cell-based
Streptokinase A = molecular target: T5, Streptokinase A (Streptococcus pyogenes serotype M1, UniProt P10520); experiment: S. pyogenes streptokinase expression inhibitors, potency, dose response, plasminogen activation absorbance, OD405 (AID 1914); type: functional, Streptococcus pyogenes M1 GAS;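 note: secreted streptokinase activity via plasminogen activation per viability signal from cell pellet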
T5 sequence (P10520 whole entry): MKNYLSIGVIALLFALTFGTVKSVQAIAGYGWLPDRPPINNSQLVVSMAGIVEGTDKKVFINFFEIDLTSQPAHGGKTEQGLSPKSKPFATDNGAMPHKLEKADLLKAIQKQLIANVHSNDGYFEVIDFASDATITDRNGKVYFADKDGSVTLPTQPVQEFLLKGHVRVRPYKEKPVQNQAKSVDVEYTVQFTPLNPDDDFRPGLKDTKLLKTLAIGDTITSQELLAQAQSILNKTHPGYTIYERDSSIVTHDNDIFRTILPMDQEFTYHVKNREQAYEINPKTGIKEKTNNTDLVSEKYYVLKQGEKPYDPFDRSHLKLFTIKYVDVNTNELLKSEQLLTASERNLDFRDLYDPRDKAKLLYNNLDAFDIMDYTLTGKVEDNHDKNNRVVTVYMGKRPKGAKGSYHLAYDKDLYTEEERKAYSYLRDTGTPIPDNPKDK

BJ [13] = experiment: cells; type: functional, cell-based; conditions: Homo sapiens
[14] = cytotoxicity toward DRD oncogenic fibroblasts, dose response, cell-based, non-viral oncogenic, luminescence (AID 1934); type: functional; conditions: Homo sapiens
Streptococcus = experiment: Group A Streptococcus viability loss, dose response, counter-screen for streptokinase expression inhibitor project, luminescence, BacTiterGlo (AID 1915); type: functional, organism-based;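 note: potency for reduction of bacterial viability or growth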
[15] = system: Streptococcus sp. 'group A'; experiment: growth inhibition of control SK(-) GAS strain, dose response, counter-screen for streptokinase expression inhibitor project, luminescence, kanamycin, BacTiterGlo, confirmation (AID 1900); type: functional, organism-based
BJ [16] = experiment: cytotoxicity toward BJ-TERT fibroblasts, dose response, cell-based, RAS-independent, luminescence (AID 1933); type: functional; conditions: Homo sapiens
BJ [17] = experiment: cytotoxicity toward BJ-TERT-LT-ST fibroblasts, dose response, cell-based, RAS-independent, luminescence (AID 1935); type: functional; conditions: Homo sapiens;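 note: BJ fibroblasts immortalized with TERT plus LT and ST oncogenes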
[18] = molecular target: Luciferin 4-monooxygenase (Photinus pyralis, UniProt P08659); experiment: firefly luciferase enzyme inhibitors, dose response, biochemical, luminescence (AID 1891)
Sequence of Luciferin 4-monooxygenase (P08659 whole entry): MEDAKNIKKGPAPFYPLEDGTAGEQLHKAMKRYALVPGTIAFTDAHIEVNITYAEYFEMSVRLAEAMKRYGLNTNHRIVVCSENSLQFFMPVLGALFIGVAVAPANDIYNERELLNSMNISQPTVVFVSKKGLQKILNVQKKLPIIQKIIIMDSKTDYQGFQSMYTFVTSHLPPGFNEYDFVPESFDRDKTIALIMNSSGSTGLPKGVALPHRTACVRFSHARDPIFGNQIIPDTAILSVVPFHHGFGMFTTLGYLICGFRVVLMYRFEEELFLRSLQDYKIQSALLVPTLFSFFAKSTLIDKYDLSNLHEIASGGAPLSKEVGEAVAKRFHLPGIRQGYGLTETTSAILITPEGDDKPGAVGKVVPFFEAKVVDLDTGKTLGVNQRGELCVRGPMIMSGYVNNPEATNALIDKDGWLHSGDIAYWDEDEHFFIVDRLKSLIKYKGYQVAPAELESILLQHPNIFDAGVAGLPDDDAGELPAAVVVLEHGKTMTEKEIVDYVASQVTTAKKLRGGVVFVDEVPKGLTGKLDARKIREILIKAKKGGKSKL

[19] = molecular target: T6, Trace amine-associated receptor 1 (Homo sapiens, UniProt Q96RJ0); experiment: Fluorescence-based cell-based high throughput dose response assay to identify agonists of the human trace amine associated receptor 1 (TAAR1).; type: functional
T6 sequence (Q96RJ0 whole entry): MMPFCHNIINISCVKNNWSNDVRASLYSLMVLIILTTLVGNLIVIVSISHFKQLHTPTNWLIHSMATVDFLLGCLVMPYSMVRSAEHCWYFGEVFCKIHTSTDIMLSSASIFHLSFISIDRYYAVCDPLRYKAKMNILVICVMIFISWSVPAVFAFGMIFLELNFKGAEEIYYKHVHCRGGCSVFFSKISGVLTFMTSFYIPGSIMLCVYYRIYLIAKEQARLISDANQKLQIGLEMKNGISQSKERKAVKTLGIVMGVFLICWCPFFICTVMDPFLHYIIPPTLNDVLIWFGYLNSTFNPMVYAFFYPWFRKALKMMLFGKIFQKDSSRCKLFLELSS

cells [20] = type: functional, cell-based; remark: listed apart in the source
[21] = molecular target: T6, Trace amine-associated receptor 1; experiment: Counterscreen for agonists of the human trace amine associated receptor 1 (hTAAR1): Fluorescence-based cell-based high throughput dose response assay to identify hTAAR1 agonist that also desensitize TAAR1 receptor response.; type: functional
cells [22] = type: functional, cell-based; remark: listed apart in the source
[23] = molecular target: FAD-linked sulfhydryl oxidase ALR (Homo sapiens, UniProt P55789); experiment: inhibitors of human ALR sulfhydryl oxidase, dose response, biochemical, H2O2 detection, luminescence, cherry-pick (AID 493248)
Sequence of FAD-linked sulfhydryl oxidase ALR (P55789 whole entry): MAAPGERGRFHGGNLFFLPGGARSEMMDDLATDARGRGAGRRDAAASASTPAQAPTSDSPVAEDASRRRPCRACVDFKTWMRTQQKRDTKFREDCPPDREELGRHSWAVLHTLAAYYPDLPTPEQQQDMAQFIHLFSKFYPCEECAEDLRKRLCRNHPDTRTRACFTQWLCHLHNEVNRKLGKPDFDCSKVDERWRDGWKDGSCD

OCC1(Cc2cccc(C(F)(F)F)c2)CCN(Cc2cc3ccccc3o2)CC1
EC50 [1]: > 260 µM (inactive)
EC50 [2]: 3.6 µM (active)
EC50 (Mu-type opioid receptor): 92.5 µM (inactive)

Cc1cnc(C)c(Nc2nc(C(N)Cc3ccc(C(F)(F)F)cc3)cs2)n1 (stereo not given)
AC50 [3]: 10.5 µM (active)
AC50 [4]: 7.29 µM (active)
AC50 [5]: 5.07 µM (active)
AC50 [6]: 18.1 µM (active)
AC50 [7]: 5.44 µM (active)

OC1CCN(C(S)=Nc2ccc(Nc3ccccc3)cc2)CC1
AC50 [8]: > 100 µM (inactive)
IC50 [9]: 38.7 µM (active)
IC50 (Large T antigen): 6.93 µM (active)

O=Nc1c2cc(-c3ccccc3)n[nH]c-2c2ccccc12
EC50 [10]: 1.47 µM (active)
IC50 [11]: > 0.833 µM (active)
IC50 (cells [12]): > 67.5 µM (inactive)
EC50 (Streptokinase A): > 150 µM (not active)
EC50 (BJ [13]): 6.29 µM (active)
EC50 [14]: 4.14 µM (active)
EC50 (Streptococcus): 14.7 µM (active)
EC50 [15]: 5.57 µM (active)
EC50 (BJ [16]): 6.53 µM (active)
EC50 (BJ [17]): > 150 µM (not active)
EC50 [18]: 0.222 µM (active)

C(=C\c1ccccc1)/CN1CCN(C(c2nnnn2-c2ccc3c(c2)OCCO3)C2CC2)CC1 (stereo not given)
EC50 [2]: 76 µM (inactive)
EC50 (Mu-type opioid receptor): 92.3 µM (inactive)

COc1cccc(CN2CCN(c3ncccn3)CC2)c1OC
EC50 [2]: 21.6 µM (inactive)
EC50 (Mu-type opioid receptor): 92.5 µM (inactive)

O=C(CCN1CCc2ccccc2C(c2ccccc2)C1)c1ccc2c(c1)OCCO2 (stereo not given)
EC50 [19]: 4.51 µM (active)
EC50 [1]: > 260 µM (inactive)
EC50 (cells [20]): > 29.9 µM (inactive)
IC50 [21]: 9.28 µM (active)
IC50 (cells [22]): > 29.9 µM (inactive)

O=C(CSc1cccc[n+]1[O-])c1ccc(-c2ccccc2)cc1
IC50 [11]: > 67.5 µM (inactive)
IC50 (cells [12]): > 67.5 µM (inactive)

O=C(O)c1cccc2c1-c1ccccc1/C2=N\Nc1ccccc1
AC50 [8]: > 100 µM (inactive)
AC50 [23]: 0.264 µM (active)
